Entries after “also recorded” stand apart in the source; their conditions may differ.
Key:
mPXR = target: T1, mPXR (Mus musculus, UniProt O54915); test: mPXR transactivation assay; type: cell-based; details: only at concentrations higher than 5 µM
T1 construct: host or cells: Hepa 1-6
Protocol: For the mPXR transactivation assay, Hepa 1-6 cells were co-transfected with pCMV6-mPXR (Cat. No. MR226044, OriGene Technologies, Rockville, MD), pGL3-CYP3A4-luc and pRL-TK by using Lipofectamine 3000. […] The relative luciferase activity was determined by normalizing the firefly luciferase signal to the Renilla luciferase signal. The final DMSO concentration was 0.3% in all assay wells. In the agonistic assays, 10 μM PCN and DMSO were used as the positive (100% activation) and negative control (0% activation), respectively. […] Compound activity was normalized to the controls.

HEK293 cells = test: One- and 3-day cytotoxicity assay; type: cell-based, human; details: HEK293, one- and 3-day
Protocol: (§1) After the plated had been incubated for 24 or 72 h at 37 °C, the cytotoxicity was determined using a CellTiter-Glo luminescent cell viability assay (Promega). […] The final DMSO concentration was 0.5% for all wells.

HepG2 cells = test: One- and 3-day cytotoxicity assay; type: cell-based, human; details: HepG2, one- and 3-day
Protocol: as §1

ACVR1B = target: T2, ACVR1B (Homo sapiens, UniProt P36896); test: KINOMEscan kinase profiling; type: binding; details: read-out: %Inhibition by 10 μM SPA70
T2 construct: purchased DiscoverX (Ambit Biosciences) KINOMEscan
Protocol: (§2) Kinase inhibition profiling assays. The kinase inhibition profiling assay (KINOMEscan) was performed by Ambit Biosciences, now part of DiscoveryX (Fremont, CA) in accordance with the […]
(§3) published protocol20, 21. […] If the inhibition of a kinase was greater […]
(§4) dilutions) starting from 30 µM.

ALK = target: T3, ALK (Homo sapiens, UniProt Q9UM73); test: KINOMEscan kinase profiling; type: binding; details: read-out: %Inhibition by 10 μM SPA70
T3 construct: purchased DiscoverX (Ambit Biosciences) KINOMEscan
Protocol: as §2, §3, §4

BMX = target: T4, BMX (Homo sapiens, UniProt P51813); test: KINOMEscan kinase profiling; type: binding; details: read-out: %Inhibition by 10 μM SPA70
T4 construct: purchased DiscoverX (Ambit Biosciences) KINOMEscan
Protocol: as §2, §3, §4

CDC2L1 = target: T5, CDC2L1 (Homo sapiens, UniProt P21127); test: KINOMEscan kinase profiling; type: binding; details: read-out: %Inhibition by 10 μM SPA70
T5 construct: purchased DiscoverX (Ambit Biosciences) KINOMEscan
Protocol: as §2, §3, §4

CSNK1A1 = target: T6, CSNK1A1 (Homo sapiens, UniProt P48729); test: KINOMEscan kinase profiling; type: binding; details: read-out: %Inhibition by 10 μM SPA70
T6 construct: purchased DiscoverX (Ambit Biosciences) KINOMEscan
Protocol: as §2, §3, §4

EPHA2 = target: T7, EPHA2 (Homo sapiens, UniProt P29317); test: KINOMEscan kinase profiling; type: binding; details: read-out: %Inhibition by 10 μM SPA70
T7 construct: purchased DiscoverX (Ambit Biosciences) KINOMEscan
Protocol: as §2, §3, §4

EPHB1 = target: T8, EPHB1 (Homo sapiens, UniProt P54762); test: KINOMEscan kinase profiling; type: binding; details: read-out: %Inhibition by 10 μM SPA70
T8 construct: purchased DiscoverX (Ambit Biosciences) KINOMEscan
Protocol: as §2, §3, §4

FER = target: T9, FER (Homo sapiens, UniProt P16591); test: KINOMEscan kinase profiling; type: binding; details: read-out: %Inhibition by 10 μM SPA70
T9 construct: purchased DiscoverX (Ambit Biosciences) KINOMEscan
Protocol: as §2, §3, §4

FLT1 = target: T10, FLT1 (Homo sapiens, UniProt P17948); test: KINOMEscan kinase profiling; type: binding; details: read-out: %Inhibition by 10 μM SPA70
T10 construct: purchased DiscoverX (Ambit Biosciences) KINOMEscan
Protocol: as §2, §3, §4

HPK1 = target: T11, HPK1 (Homo sapiens, UniProt Q92918); test: KINOMEscan kinase profiling; type: binding; details: read-out: %Inhibition by 10 μM SPA70
T11 construct: purchased DiscoverX (Ambit Biosciences) KINOMEscan
Protocol: as §2, §3, §4

ICK = target: T12, ICK (Homo sapiens, UniProt Q9UPZ9); test: KINOMEscan kinase profiling; type: binding; details: read-out: %Inhibition by 10 μM SPA70
T12 construct: purchased DiscoverX (Ambit Biosciences) KINOMEscan
Protocol: as §2, §3, §4

IGF1R = target: T13, IGF1R (Homo sapiens, UniProt P08069); test: KINOMEscan kinase profiling; type: binding; details: read-out: %Inhibition by 10 μM SPA70
T13 construct: purchased DiscoverX (Ambit Biosciences) KINOMEscan
Protocol: as §2, §3, §4

JNK3 = target: T14, JNK3 (Homo sapiens, UniProt P53779); test: KINOMEscan kinase profiling; type: binding
T14 construct: purchased DiscoverX (Ambit Biosciences) KINOMEscan
Protocol: as §2, §3, §4

MARK1 = target: T15, MARK1 (Homo sapiens, UniProt Q9P0L2); test: KINOMEscan kinase profiling; type: binding; details: read-out: %Inhibition by 10 μM SPA70
T15 construct: purchased DiscoverX (Ambit Biosciences) KINOMEscan
Protocol: as §2, §3, §4

MEK1 = target: T16, MEK1 (Homo sapiens, UniProt Q02750); test: KINOMEscan kinase profiling; type: binding; details: read-out: %Inhibition by 10 μM SPA70
T16 construct: purchased DiscoverX (Ambit Biosciences) KINOMEscan
Protocol: as §2, §3, §4

MEK4 = target: T17, MEK4 (Homo sapiens, UniProt P45985); test: KINOMEscan kinase profiling; type: binding; details: read-out: %Inhibition by 10 μM SPA70
T17 construct: purchased DiscoverX (Ambit Biosciences) KINOMEscan
Protocol: as §2, §3, §4

MERTK = target: T18, MERTK (Homo sapiens, UniProt Q12866); test: KINOMEscan kinase profiling; type: binding; details: read-out: %Inhibition by 10 μM SPA70
T18 construct: purchased DiscoverX (Ambit Biosciences) KINOMEscan
Protocol: as §2, §3, §4

MLK3 = target: T19, MLK3 (Homo sapiens, UniProt Q16584); test: KINOMEscan kinase profiling; type: binding
T19 construct: purchased DiscoverX (Ambit Biosciences) KINOMEscan
Protocol: as §2, §3, §4

MST1 = target: T20, MST1 (Homo sapiens, UniProt Q13043); test: KINOMEscan kinase profiling; type: binding
T20 construct: purchased DiscoverX (Ambit Biosciences) KINOMEscan
Protocol: as §2, §3, §4

MUSK = target: T21, MUSK (Homo sapiens, UniProt O15146); test: KINOMEscan kinase profiling; type: binding; details: read-out: %Inhibition by 10 μM SPA70
T21 construct: purchased DiscoverX (Ambit Biosciences) KINOMEscan
Protocol: as §2, §3, §4

NDR1 = target: T22, NDR1 (Homo sapiens, UniProt Q15208); test: KINOMEscan kinase profiling; type: binding; details: read-out: %Inhibition by 10 μM SPA70
T22 construct: purchased DiscoverX (Ambit Biosciences) KINOMEscan
Protocol: as §2, §3, §4

NLK = target: T23, NLK (Homo sapiens, UniProt Q9UBE8); test: KINOMEscan kinase profiling; type: binding; details: read-out: %Inhibition by 10 μM SPA70
T23 construct: purchased DiscoverX (Ambit Biosciences) KINOMEscan
Protocol: as §2, §3, §4

PIK3C2B = target: T24, PIK3C2B (Homo sapiens, UniProt O00750); test: KINOMEscan kinase profiling; type: binding; details: read-out: %Inhibition by 10 μM SPA70
T24 construct: purchased DiscoverX (Ambit Biosciences) KINOMEscan
Protocol: as §2, §3, §4

PIM3 = target: T25, PIM3 (Homo sapiens, UniProt Q86V86); test: KINOMEscan kinase profiling; type: binding; details: read-out: %Inhibition by 10 μM SPA70
T25 construct: purchased DiscoverX (Ambit Biosciences) KINOMEscan
Protocol: as §2, §3, §4

QSK = target: T26, QSK (Homo sapiens, UniProt Q9Y2K2); test: KINOMEscan kinase profiling; type: binding
T26 construct: purchased DiscoverX (Ambit Biosciences) KINOMEscan
Protocol: as §2, §3, §4

RIPK1 = target: T27, RIPK1 (Homo sapiens, UniProt Q13546); test: KINOMEscan kinase profiling; type: binding; details: read-out: %Inhibition by 10 μM SPA70
T27 construct: purchased DiscoverX (Ambit Biosciences) KINOMEscan
Protocol: as §2, §3, §4

ROCK1 = target: T28, ROCK1 (Homo sapiens, UniProt Q13464); test: KINOMEscan kinase profiling; type: binding; details: read-out: %Inhibition by 10 μM SPA70
T28 construct: purchased DiscoverX (Ambit Biosciences) KINOMEscan
Protocol: as §2, §3, §4

ROS1 = target: T29, ROS1 (Homo sapiens, UniProt P08922); test: KINOMEscan kinase profiling; type: binding; details: read-out: %Inhibition by 10 μM SPA70
T29 construct: purchased DiscoverX (Ambit Biosciences) KINOMEscan
Protocol: as §2, §3, §4

S6K1 = target: T30, S6K1 (Homo sapiens, UniProt P23443); test: KINOMEscan kinase profiling; type: binding; details: read-out: %Inhibition by 10 μM SPA70
T30 construct: purchased DiscoverX (Ambit Biosciences) KINOMEscan
Protocol: as §2, §3, §4

SNARK = target: T31, SNARK (Homo sapiens, UniProt Q9H093); test: KINOMEscan kinase profiling; type: binding
T31 construct: purchased DiscoverX (Ambit Biosciences) KINOMEscan
Protocol: as §2, §3, §4

SRPK3 = target: T32, SRPK3 (Homo sapiens, UniProt Q9UPE1); test: KINOMEscan kinase profiling; type: binding; details: read-out: %Inhibition by 10 μM SPA70
T32 construct: purchased DiscoverX (Ambit Biosciences) KINOMEscan
Protocol: as §2, §3, §4

TLK2 = target: T33, TLK2 (Homo sapiens, UniProt Q86UE8); test: KINOMEscan kinase profiling; type: binding; details: read-out: %Inhibition by 10 μM SPA70
T33 construct: purchased DiscoverX (Ambit Biosciences) KINOMEscan
Protocol: as §2, §3, §4

TNIK = target: T34, TNIK (Homo sapiens, UniProt Q9UKE5); test: KINOMEscan kinase profiling; type: binding; details: read-out: %Inhibition by 10 μM SPA70
T34 construct: purchased DiscoverX (Ambit Biosciences) KINOMEscan
Protocol: as §2, §3, §4

TNK2 = target: T35, TNK2 (Homo sapiens, UniProt Q07912); test: KINOMEscan kinase profiling; type: binding; details: read-out: %Inhibition by 10 μM SPA70
T35 construct: purchased DiscoverX (Ambit Biosciences) KINOMEscan
Protocol: as §2, §3, §4

YANK1 = target: T36, YANK1 (Homo sapiens, UniProt Q8WU08); test: KINOMEscan kinase profiling; type: binding; details: read-out: %Inhibition by 10 μM SPA70
T36 construct: purchased DiscoverX (Ambit Biosciences) KINOMEscan
Protocol: as §2, §3, §4

T1 sequence (O54915 whole entry): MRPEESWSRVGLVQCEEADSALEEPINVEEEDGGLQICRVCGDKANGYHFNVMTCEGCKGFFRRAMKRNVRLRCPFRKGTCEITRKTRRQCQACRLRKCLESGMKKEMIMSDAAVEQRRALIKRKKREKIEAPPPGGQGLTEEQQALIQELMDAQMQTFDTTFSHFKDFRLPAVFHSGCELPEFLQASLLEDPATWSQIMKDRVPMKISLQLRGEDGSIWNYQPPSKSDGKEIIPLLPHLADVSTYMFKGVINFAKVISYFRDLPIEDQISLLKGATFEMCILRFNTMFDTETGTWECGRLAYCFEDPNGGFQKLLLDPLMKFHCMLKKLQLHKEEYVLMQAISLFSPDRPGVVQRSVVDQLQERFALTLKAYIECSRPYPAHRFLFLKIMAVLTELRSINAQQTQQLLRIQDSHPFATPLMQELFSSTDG
T4 sequence (P51813 whole entry): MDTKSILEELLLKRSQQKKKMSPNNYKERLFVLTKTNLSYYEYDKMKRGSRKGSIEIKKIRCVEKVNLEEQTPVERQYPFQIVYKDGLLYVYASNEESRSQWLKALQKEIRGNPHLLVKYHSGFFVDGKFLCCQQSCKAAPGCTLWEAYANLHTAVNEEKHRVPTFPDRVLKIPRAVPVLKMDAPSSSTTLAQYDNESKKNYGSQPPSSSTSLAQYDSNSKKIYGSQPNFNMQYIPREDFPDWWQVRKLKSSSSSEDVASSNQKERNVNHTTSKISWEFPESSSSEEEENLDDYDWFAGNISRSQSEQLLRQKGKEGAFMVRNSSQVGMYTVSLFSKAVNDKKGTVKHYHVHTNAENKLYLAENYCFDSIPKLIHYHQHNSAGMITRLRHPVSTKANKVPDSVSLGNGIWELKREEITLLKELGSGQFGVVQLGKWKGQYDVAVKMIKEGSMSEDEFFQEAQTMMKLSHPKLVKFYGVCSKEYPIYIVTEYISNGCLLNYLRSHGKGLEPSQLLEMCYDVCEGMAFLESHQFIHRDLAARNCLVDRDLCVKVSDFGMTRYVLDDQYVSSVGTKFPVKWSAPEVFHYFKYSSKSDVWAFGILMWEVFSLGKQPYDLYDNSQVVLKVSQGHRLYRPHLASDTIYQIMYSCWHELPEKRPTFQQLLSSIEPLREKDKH
T5 sequence (P21127 whole entry): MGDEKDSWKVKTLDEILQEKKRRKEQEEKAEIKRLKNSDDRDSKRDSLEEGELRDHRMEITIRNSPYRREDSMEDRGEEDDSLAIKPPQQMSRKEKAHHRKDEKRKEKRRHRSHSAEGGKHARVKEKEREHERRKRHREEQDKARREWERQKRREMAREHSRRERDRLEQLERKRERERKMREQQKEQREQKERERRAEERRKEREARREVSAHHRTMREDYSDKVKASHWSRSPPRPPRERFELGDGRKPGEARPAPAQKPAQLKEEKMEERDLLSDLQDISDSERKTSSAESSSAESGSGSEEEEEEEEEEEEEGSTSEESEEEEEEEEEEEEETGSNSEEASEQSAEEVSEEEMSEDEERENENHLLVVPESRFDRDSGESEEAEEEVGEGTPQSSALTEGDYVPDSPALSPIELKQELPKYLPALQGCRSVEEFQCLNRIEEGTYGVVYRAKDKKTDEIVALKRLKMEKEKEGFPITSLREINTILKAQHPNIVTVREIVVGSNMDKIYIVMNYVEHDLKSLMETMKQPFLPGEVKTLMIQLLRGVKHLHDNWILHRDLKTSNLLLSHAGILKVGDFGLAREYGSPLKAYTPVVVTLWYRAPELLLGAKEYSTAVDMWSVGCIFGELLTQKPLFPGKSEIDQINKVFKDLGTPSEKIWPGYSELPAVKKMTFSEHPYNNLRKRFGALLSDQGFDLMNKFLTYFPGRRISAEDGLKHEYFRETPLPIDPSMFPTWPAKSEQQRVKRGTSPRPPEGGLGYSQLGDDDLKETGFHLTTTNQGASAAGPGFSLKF
T9 sequence (P16591 whole entry): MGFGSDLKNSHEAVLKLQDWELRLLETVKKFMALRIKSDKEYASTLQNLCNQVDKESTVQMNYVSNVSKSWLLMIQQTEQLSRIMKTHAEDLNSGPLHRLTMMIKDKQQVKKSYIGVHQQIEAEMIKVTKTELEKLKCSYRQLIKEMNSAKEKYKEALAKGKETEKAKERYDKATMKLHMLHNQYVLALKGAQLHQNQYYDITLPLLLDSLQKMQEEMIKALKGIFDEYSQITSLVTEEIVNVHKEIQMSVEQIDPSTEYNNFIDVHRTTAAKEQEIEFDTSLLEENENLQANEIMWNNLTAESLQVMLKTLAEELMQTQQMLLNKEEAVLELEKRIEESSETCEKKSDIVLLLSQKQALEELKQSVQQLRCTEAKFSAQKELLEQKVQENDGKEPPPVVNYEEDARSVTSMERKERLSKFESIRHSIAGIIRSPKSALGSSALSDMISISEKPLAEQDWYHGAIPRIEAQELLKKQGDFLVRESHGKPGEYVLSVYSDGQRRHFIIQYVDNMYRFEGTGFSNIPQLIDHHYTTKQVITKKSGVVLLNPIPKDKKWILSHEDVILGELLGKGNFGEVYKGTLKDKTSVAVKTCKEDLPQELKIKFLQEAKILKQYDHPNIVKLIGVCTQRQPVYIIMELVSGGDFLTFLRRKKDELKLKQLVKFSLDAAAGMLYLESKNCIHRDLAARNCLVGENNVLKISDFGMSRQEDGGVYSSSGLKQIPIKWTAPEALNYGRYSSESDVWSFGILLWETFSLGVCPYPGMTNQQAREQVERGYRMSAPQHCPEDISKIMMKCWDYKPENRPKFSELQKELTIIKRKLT
T6 sequence (P48729 whole entry): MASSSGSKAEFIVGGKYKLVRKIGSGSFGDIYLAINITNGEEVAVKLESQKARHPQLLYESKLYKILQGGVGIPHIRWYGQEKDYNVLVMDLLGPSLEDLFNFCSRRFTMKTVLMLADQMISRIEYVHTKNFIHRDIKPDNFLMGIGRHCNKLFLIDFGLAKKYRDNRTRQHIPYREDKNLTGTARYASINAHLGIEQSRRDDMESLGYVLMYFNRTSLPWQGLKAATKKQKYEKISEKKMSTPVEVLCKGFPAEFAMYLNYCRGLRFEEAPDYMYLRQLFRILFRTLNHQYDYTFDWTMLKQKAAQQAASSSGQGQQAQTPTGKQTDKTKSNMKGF
T34 sequence (Q9UKE5 whole entry): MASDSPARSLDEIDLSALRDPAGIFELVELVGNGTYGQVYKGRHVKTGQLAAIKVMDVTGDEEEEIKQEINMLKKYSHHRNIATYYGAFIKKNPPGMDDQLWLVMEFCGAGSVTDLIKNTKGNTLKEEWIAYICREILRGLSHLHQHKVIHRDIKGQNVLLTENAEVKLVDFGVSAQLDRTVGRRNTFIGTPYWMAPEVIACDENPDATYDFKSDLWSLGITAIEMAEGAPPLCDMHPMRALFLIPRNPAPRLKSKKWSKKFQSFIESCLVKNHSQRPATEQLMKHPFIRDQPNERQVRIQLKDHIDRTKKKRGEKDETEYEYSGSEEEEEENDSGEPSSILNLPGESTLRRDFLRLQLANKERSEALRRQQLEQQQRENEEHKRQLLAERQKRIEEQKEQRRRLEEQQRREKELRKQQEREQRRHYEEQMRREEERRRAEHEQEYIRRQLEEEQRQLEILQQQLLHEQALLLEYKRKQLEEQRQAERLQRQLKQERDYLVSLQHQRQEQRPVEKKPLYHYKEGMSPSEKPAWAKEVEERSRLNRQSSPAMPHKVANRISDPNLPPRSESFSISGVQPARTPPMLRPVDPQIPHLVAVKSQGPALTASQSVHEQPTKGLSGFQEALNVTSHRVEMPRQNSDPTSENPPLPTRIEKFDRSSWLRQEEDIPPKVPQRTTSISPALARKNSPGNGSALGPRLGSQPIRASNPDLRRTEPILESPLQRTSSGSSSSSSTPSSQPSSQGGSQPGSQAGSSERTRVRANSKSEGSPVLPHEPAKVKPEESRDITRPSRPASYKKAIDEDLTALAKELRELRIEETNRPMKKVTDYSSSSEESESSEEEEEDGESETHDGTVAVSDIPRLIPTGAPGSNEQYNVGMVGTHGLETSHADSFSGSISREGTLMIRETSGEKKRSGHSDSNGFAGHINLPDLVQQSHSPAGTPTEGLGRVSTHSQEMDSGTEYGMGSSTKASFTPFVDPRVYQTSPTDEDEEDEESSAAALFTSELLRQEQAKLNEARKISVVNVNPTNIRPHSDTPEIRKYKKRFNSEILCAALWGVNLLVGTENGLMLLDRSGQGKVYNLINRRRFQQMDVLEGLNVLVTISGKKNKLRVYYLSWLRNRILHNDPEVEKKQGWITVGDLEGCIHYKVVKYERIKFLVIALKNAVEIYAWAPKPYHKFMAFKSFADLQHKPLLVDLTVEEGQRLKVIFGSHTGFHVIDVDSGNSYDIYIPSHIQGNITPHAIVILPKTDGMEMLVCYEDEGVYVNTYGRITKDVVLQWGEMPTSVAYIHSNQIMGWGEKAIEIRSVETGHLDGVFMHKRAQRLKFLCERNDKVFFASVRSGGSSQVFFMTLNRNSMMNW

## COc1ccc(OC)c(-n2nnc(S(=O)(=O)c3ccc(C(C)(C)C)cc3)c2C)c1 [SPA70]
mPXR
  mPXR agonism: very weak mPXR agonist; also recorded: weak agonist of mPXR
HEK293 cells
  Cytotoxicity: marginal cytotoxicity
HepG2 cells
  Cytotoxicity: marginal cytotoxicity
ACVR1B
  inhibition at 10 µM: 0%
ALK
  inhibition at 10 µM: 0%
BMX
  inhibition at 10 µM: 0%
CDC2L1
  inhibition at 10 µM: 0%
CSNK1A1
  inhibition at 10 µM: 1%
EPHA2
  inhibition at 10 µM: 0%
EPHB1
  inhibition at 10 µM: 0%
FER
  inhibition at 10 µM: 19%
FLT1
  inhibition at 10 µM: 0%
HPK1
  inhibition at 10 µM: 1%
ICK
  inhibition at 10 µM: 0%
IGF1R
  inhibition at 10 µM: 0%
JNK3
  %Inhibition by 10 μM SPA70: 9%
MARK1
  inhibition at 10 µM: 0%
MEK1
  inhibition at 10 µM: 11%
MEK4
  inhibition at 10 µM: 0%
MERTK
  inhibition at 10 µM: 0%
MLK3
  %Inhibition by 10 μM SPA70: 18%
MST1
  %Inhibition by 10 μM SPA70: 0%
MUSK
  inhibition at 10 µM: 0%
NDR1
  inhibition at 10 µM: 0%
NLK
  inhibition at 10 µM: 16%
PIK3C2B
  inhibition at 10 µM: 0%
PIM3
  inhibition at 10 µM: 0%
QSK
  %Inhibition by 10 μM SPA70: 43%
RIPK1
  inhibition at 10 µM: 0%
ROCK1
  inhibition at 10 µM: 3%
ROS1
  inhibition at 10 µM: 5%
S6K1
  inhibition at 10 µM: 13%
SNARK
  %Inhibition by 10 μM SPA70: 8%
SRPK3
  inhibition at 10 µM: 0%
TLK2
  inhibition at 10 µM: 0%
TNIK
  inhibition at 10 µM: 10%
TNK2
  inhibition at 10 µM: 0%
YANK1
  inhibition at 10 µM: 0%

Reference: article PMC5622171 (Nature Communications, 2017)
